Measured values as given in the METLIN SMRT retention time set (Domingo-Almenara et al. 2019).

Assay: gradient 5% acetonitrile 3 min, to 50% in 2 min, to 85% in 15 min, held 3 min, 100 µL/min
Conditions: column: Zorbax Extend-C18 2.1 x 50 mm; eluents: water / acetonitrile, 0.1% formic acid
In short: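 Each retention time is based on an adduct peak selected computationally and verified by manual inspection. Measurements used HPLC–quadrupole time-of-flight mass spectrometry in positive and negative ionization mode on mixtures of ~100 pure standards. Chromatography ran on a Zorbax Extend-C18 column (2.1 × 50 mm, 1.8 μm) at 100 μL/min with water and acetonitrile, each containing 0.1% formic acid, and dead and dwell volumes of 40 μL and 900 μL.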

| RP-LC retention time [s] | Compound |
| --- | --- |
| 1040 | CCCOc1ccccc1Nc1nc(C(=O)OCC)nc2ccccc12 |
| 756 | CCN1c2cc(F)ccc2C(=O)NC12CCN(C(=O)c1cccc(OC)c1)CC2 |
| 626 | COc1ccc(OC)c(S(=O)(=O)N2CCC(Cn3c(C)cnc3C)C2)c1 (centres undefined) |
| 1170 | COc1ccc(S(=O)(=O)N2CC(C(=O)NC3CCCCC3)Oc3cc(C)ccc32)cc1 (centres undefined) |
| 955 | CC(C)c1ccc(-c2noc(N3CCC(C(=O)N4CCOCC4)CC3)n2)cc1 |
| 1100 | CCOc1ccc(-c2csc3c(=O)n(Cc4ccc(F)cc4)cnc23)cc1OCC |
| 673 | Cc1ccc(C2c3[nH]c4ccccc4c3CCN2C(=O)c2ccnn2C)cc1 (centres undefined) |
| 578 | Cc1nc2ccn(Cc3ccco3)c(=O)c2cc1C(=O)NCCCN1CCOCC1 |
| 693 | CCn1cc(-c2ccc(C)cc2)cc1C(=O)NCCCN1CCOCC1 |
| 613 | CCCN(Cc1ccc(OC)c(OC)c1)Cc1cc(=O)n2ccc(C)cc2n1 |
| 968 | Cc1ccc(S(=O)(=O)N2CC(=O)N(c3ccc(F)cc3)C(C)(C(=O)NCc3ccccc3)C2)cc1 (centres undefined) |
| 788 | Cn1c(=O)c(N2CCCC(C(=O)NCc3ccco3)C2)nc2cccnc21 (centres undefined) |
| 1030 | CNC(=O)c1c(NC(=O)C2COc3ccccc3O2)sc2c1CCCC2 (centres undefined) |
| 688 | Cn1c(C2CCN(C(=O)c3cccc(Cl)c3)C2)nc2cccnc21 (centres undefined) |
| 887 | Cc1oc(-c2ccc(NC(=O)COc3ccccc3)cc2)nc1Cn1cccn1 |
| 1170 | COc1nc2ccccc2nc1N1CCCC(C(=O)Nc2cc(F)cc(F)c2)C1 (centres undefined) |
| 688 | CCOC(=O)c1c(C)oc2ncnc(NCCN(C)Cc3ccccc3)c12 |
| 770 | Cc1nn(C)c(C)c1CCCN(C)C(=O)c1cc2c(s1)N(C)CCCC2 |
| 665 | CCOc1ccc(S(=O)(=O)N2CCC(C(=O)NCCO)CC2)cc1 |
| 515 | O=C(c1ccc(Br)o1)N1C[C@@H](CO)[C@H](c2ccncc2)C1 |
| 757 | COc1ccccc1NC(=O)C1CCN(S(=O)(=O)c2cn(C(C)C)cn2)CC1 |
| 620 | CCNc1cc(N2CCC(CCC(=O)NC3CCN(C(=O)OCC)CC3)CC2)ncn1 |

| RP-LC retention time [s] | Compound |
| --- | --- |
| 800 | CCOC(=O)c1c(C)[nH]c(CCC(=O)Nc2ccc(C(C)=O)cc2)c1C |
| 705 | Cc1ccc(C(=O)N2CCN(c3nnc4cccc(C)n34)CC2)cc1C |
| 612 | Cc1ccc(-c2noc(Cn3ccn(-c4cc(C)cc(C)c4)c(=O)c3=O)n2)cc1 |
| 782 | CCOc1ccccc1NC(=O)NCCc1nc2cccnc2n1C1CCCC1 |
| 658 | O=C(Cn1c(=O)oc2ccccc21)N1C[C@H]2C[C@H](C1)[C@H]1CCCC(=O)N1C2 |
| 712 | O=S(=O)(Nc1ccc(Cl)cc1)c1ccc2nncn2c1 |
| 636 | O=C(Nc1ccccc1)Nc1c(-c2ccccc2)nc2ccccn12 |
| 1100 | CCOC(=O)c1nc(Nc2ccccc2OCC)c2c(CC)noc2n1 |
| 1110 | Cc1cccc(N2CCN(C(=O)Cn3ccc4ccc(N5CCOCC5)nc43)CC2)c1C |
| 748 | CC(C)c1noc(-c2ccnc(-n3cnc(C(=O)N4CCOCC4)c3)c2)n1 |
| 855 | Cc1ccc(-c2ccc(N3CCCC(C(=O)NCCC4=CCCCC4)C3)nn2)cc1 (centres undefined) |
| 659 | COc1ccc(Cl)cc1NC(=O)NCCn1c(-c2ccncc2)nc2cccnc21 |
| 755 | COc1ccc(-c2nnc(Cc3nc(-c4cccnc4)no3)o2)cc1 |
| 849 | CSc1nc(N2CCCC2)c2cnn(CCNC(=O)c3cc(-c4ccco4)on3)c2n1 |
| 628 | Cc1ccc(NC(=O)CSc2ccc(N3CCCC(C(=O)NC4CC4)C3)nn2)cc1C (centres undefined) |
| 1230 | Cn1cc(C2=CCN(S(=O)(=O)c3ccc(C(C)(C)C)cc3)CC2)c2cccnc21 |
| 1120 | Cn1c(=O)n(CC(=O)N2CCCCCC2)c(=O)c2cnc(-c3ccc(Cl)cc3)nc21 |
| 849 | COC(=O)C1=CN(c2cccc(C)c2)c2ccccc2S1(=O)=O |
| 863 | COc1ccc(C)cc1NC(=O)N1CCCC1c1cc(C)on1 (centres undefined) |
| 742 | CC(=O)N1CCc2cc(N3CC(C(=O)NCc4cc(C)ccc4C)CC3=O)ccc21 (centres undefined) |
| 941 | Cc1oc(-c2ccc(NC(=O)Cc3ccc(Cl)cc3)cc2)nc1Cn1cccn1 |
| 860 | COc1ccc(S(=O)(=O)c2ccc(NCc3cccc(OC)c3)nn2)cc1 |

| RP-LC retention time [s] | Compound |
| --- | --- |
| 1040 | O=C(NCc1nc2ccccc2c(=O)n1-c1ccc(F)cc1)Nc1ccc(Cl)c(C(F)(F)F)c1 |
| 876 | CC(C)c1nnc(NC(=O)CCCOc2ccc(Cl)cc2)s1 |
| 1120 | Cc1cccc(N2CCN(C(=O)c3ccc(-c4csc(C5CC5)n4)cc3)CC2C)c1 (centres undefined) |
| 701 | C=CCn1nnnc1SCC(=O)Nc1ccc(C(=O)OC)cc1 |
| 881 | COc1ccc(OC)c(NC(=O)COc2cc(C(C)(C)C)nn2-c2nc(C)cc(C)n2)c1 |
| 766 | COc1ccc(NC(=O)Cn2c(=O)n(-c3ccccc3)c(=O)c3c2cc(C)n3C)cc1 |
| 583 | CCN1CCC2(CC1)OC(=O)C(C)=C2C(=O)NCCCN1CCC(Cc2ccccc2)CC1 |
| 835 | CN(CCc1noc(COc2ccccc2F)n1)C(=O)c1cccs1 |
| 678 | O=C(c1cccs1)N1CCC(c2noc(-c3cnccn3)n2)C1 (centres undefined) |
| 687 | CCS(=O)(=O)N1CCc2nn(Cc3ccccc3)c(=O)n2CC1 |
| 672 | O=C(NCc1ccccc1)Nc1cccc(-c2ccc(N3CCOCC3)nn2)c1 |
| 666 | CS(=O)(=O)N1CCN(C(=O)CCc2csc(NC(=O)c3ccc(F)cc3)n2)CC1 |
| 848 | COC(=O)c1c(NCCCc2ccccc2)c2cc(F)ccc2[nH]c1=O |
| 1050 | Cc1cccc(NS(=O)(=O)c2ccc3c(c2)C(=O)N(C)c2ncccc2O3)c1 |
| 563 | O=C(NCc1ccccn1)C(=O)NCC1OCCN1S(=O)(=O)c1cccs1 (centres undefined) |
| 589 | CC(=O)Nc1cc(C(=O)NCCN(C)C)ccc1Sc1ccc(Cl)cc1 |
| 812 | COc1ccc(CNC(=O)N(Cc2ccsc2)CC(F)(F)F)cc1OC |
| 645 | CS(=O)(=O)Nc1nc2ccccc2[nH]1 |
| 818 | COc1cc(NC(=O)NC2CCN(c3cc(C)cc(C)c3)C2=O)cc(OC)c1 (centres undefined) |
| 1020 | O=C(c1cc(F)ccc1Cl)N1CCc2nc(-c3ccc(F)cc3)ncc2C1 |
| 1170 | CCOc1ccccc1-c1noc(Cn2cnc3c(cnn3-c3ccc(CC)cc3)c2=O)n1 |
| 722 | COc1ccc(NC(=O)Cn2cccc(-c3nc(-c4ccc(OC)c(OC)c4)no3)c2=O)cc1OC |

| RP-LC retention time [s] | Compound |
| --- | --- |
| 622 | Cc1oc(-c2[nH]ncc2C(=O)N(C)C)cc1S(=O)(=O)NCc1ccco1 |
| 738 | CCc1ccccc1NC(=O)C1CCc2sc(C(=O)N(C)C)cc2C1 (centres undefined) |
| 777 | O=S(=O)(NCc1ccc(F)cc1)c1ccc(N2CCCCS2(=O)=O)cc1 |
| 824 | O=C(Nc1ccc(F)c(C(F)(F)F)c1)C1COCC(=O)N1Cc1ccccc1 (centres undefined) |
| 759 | CCCCc1ccc(NC(=O)Cn2cnc3nc(N4CCCC(C(=O)NC)C4)sc3c2=O)cc1 (centres undefined) |
| 792 | O=C(Nc1cc(-c2ccsc2)no1)C1CC1 |
| 1410 | CCCCC1CCC(C(=O)Nc2nc(-c3ccc4c(c3)N(C)C(=O)CO4)c(C)s2)CC1 (centres undefined) |
| 704 | COCCCNC(=O)C1c2ccccc2C(=O)N1Cc1ccccc1 (centres undefined) |
| 908 | O=C(NC1CCCCC1)c1ccc2ccnc(N3CCN(c4ccccc4F)CC3)c2c1 |
| 523 | Cn1nccc1C(=O)N1CCN(C(=O)c2cc(-c3ccncc3)n[nH]2)CC1 |
| 644 | COCCN1CN=C(Nc2nc(C)c3cccc(C)c3n2)NC1 |
| 1290 | Cc1ccc(-c2noc(-c3ccc(NC(=O)c4ccc(Br)o4)cc3)n2)cc1 |
| 787 | CCN1c2ccccc2C(=O)NC12CCN(C(=O)Nc1cc(Cl)ccc1OC)CC2 |
| 585 | COc1cccc(C(=O)Nc2nc3c(s2)CN(Cc2ccccc2)CC3)c1OC |
| 815 | Cc1ccc(C2Cn3nnc(C(=O)N4CCN(C(=O)c5ccoc5)CC4)c3CO2)cc1 (centres undefined) |
| 781 | Cn1nc(C(=O)N2CCC(Nc3cccnc3)C2)c2ccccc21 (centres undefined) |
| 736 | COc1ccccc1CNC(=O)C1CCN(C(=O)C2Sc3ccccc3NC2=O)CC1 (centres undefined) |
| 677 | Cc1cccc(-c2ncccc2CNS(=O)(=O)c2ccccc2)c1 |
| 688 | Cc1ccc(-c2ncccc2CNS(=O)(=O)c2ccc(C#N)cc2)cc1 |
| 832 | COc1ccc(N2CCN(c3nc(C(=O)NC4CC4)cs3)CC2)cc1 |
| 794 | Cc1nn(CC(=O)NC(C)(C)C)c(C)c1S(=O)(=O)N1CCC(C(=O)N2CCC(C)CC2)CC1 |
| 846 | Cc1ccccc1Cn1nc2c(S(=O)(=O)N3CCCC3)cccn2c1=O |

| Compound | RP-LC retention time [s] |
| --- | --- |
| CN1CC[C@@H](c2ccc(F)cc2)[C@H](COc2ccc3c(c2)OCO3)C1 | 766 |
